What was measured:
[1] = biological target: T1, RAMP1-CLR (CGRP receptor) (Homo sapiens, UniProt O60894+Q16602); test: S. cerevisiae growth assay, GPA1/Gαs chimera, RAMP1 + CLR; type: cell-based; details: percentage of yeast strain MMY11 (lacking GPA1); 20 h; mean ± S.E., n = 6
T1 construct: FLAG; expressed in transfected cells; host or cells: HEK-293 or HEK-293S cells, transient transfection, 1:1 RAMP:CLR
Protocol: FIGURE 1. […] Reporter gene activity was determined following 20 h of stimulation with each ligand. Data are expressed as a percentage of the maximum response observed in yeast strain MMY11 (lacking GPA1) and are means ± S.E. of n individual data sets. […] Data were determined as statistically different from the cognate ligand for each receptor (*, p < 0.05; **, p < 0.01; ***, p < 0.001) using a one-way ANOVA with Bonferroni's post-test.
General yeast procedures were performed as described previously ([22], [24]). The human CLR was introduced into yeast cells under the control of the PGK promoter using a plasmid containing ura3 (pDT-PGK). […] Receptor signaling was measured using the yeast growth assay as described previously ([24]). […] A fluorescein signal was detected as an increase in fluorescence (excitation wavelength = 485 nm, emission wavelength = 535 nm) as a measure of growth. Different concentrations of ligand (0.01 nM–100 μM) were assayed using 96-well plates, and fluorescence was detected using a Tecan Infinite M200 microplate reader (Tecan Ultra Evolution, Reading, UK) or a Mithras LB 940 microplate reader (Berthold Technologies, Harpenden, UK) for 20 h.
Data analysis for cAMP assays was performed in GraphPad Prism 6.0f (San Diego, CA). […] To quantitate the ligand-dependent response in the yeast system, a strain lacking GPA1 (MMY11), grown in rich medium, was used as a standard ([72]). […]

[2] = biological target: T1, RAMP1-CLR (CGRP receptor); test: cAMP accumulation, HEK-293S cells, RAMP1 + CLR; type: cell-based; details: HEK293S, untreated, percentage of maximal cAMP with 100 μM forskolin, mean ± S.E., n = 5
Protocol: HEK-293 cells were transfected with FuGENE 6 (Roche Applied Science) in accordance with the manufacturer's instructions using a 1:3 (w:v) DNA:FuGENE ratio and a 1:1 ratio of RAMP to CLR. […] The transfected cell lines were grown for 24–48 h prior to assaying.
The transfected HEK-293 cells were washed in PBS, resuspended in stimulation buffer (PBS containing 0.1% BSA and 0.5 mM IBMX), and seeded at 2000 cells/well in 384-well white Optiplates. Ligands were added in the range of 1 pM to 1 mM, and cAMP accumulation was measured after 30 min of stimulation using a LANCE® cAMP detection kit (PerkinElmer Life Sciences). […] Plates were read using a Mithras LB 940 multimode microplate reader (Berthold Technologies). […] Values were converted to concentration using a cAMP standard curve performed in parallel.
Data analysis for cAMP assays was performed in GraphPad Prism 6.0f (San Diego, CA). […] These values were then used to quantify signaling bias as change in log (τ/Ka) relative to the natural cognate ligand for the respective receptor ([41]). […] Statistical differences were analyzed using one-way ANOVA or Student's t test as appropriate with post hoc Bonferroni's or Dunnett's multiple comparisons, and p < 0.05 was considered significant. […] To quantitate the ligand-dependent response in the yeast system, a strain lacking GPA1 (MMY11), grown in rich medium, was used as a standard ([72]). […]

T1 sequence (Q16602 23-461): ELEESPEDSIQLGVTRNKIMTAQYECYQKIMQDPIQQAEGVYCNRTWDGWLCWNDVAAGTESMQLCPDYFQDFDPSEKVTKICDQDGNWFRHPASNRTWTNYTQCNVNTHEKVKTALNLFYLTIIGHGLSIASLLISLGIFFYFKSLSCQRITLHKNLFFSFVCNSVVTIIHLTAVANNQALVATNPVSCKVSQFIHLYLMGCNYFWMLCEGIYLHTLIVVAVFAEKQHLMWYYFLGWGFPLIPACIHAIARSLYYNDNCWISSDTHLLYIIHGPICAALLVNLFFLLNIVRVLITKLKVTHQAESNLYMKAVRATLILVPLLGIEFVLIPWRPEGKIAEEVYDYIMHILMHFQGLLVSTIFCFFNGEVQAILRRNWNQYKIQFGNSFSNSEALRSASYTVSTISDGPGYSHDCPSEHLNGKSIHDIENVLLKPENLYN
T1 sequence (O60894 27-148): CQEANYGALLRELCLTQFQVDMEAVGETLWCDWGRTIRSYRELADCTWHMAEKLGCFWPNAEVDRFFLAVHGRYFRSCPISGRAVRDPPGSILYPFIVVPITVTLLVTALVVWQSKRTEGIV

Emax [1]: 20.4 ± 2.8%
Emax [2]: 60 ± 3.1%
Compound: CC[C@H](C)[C@H](NC(=O)[C@H](CCC(N)=O)NC(=O)[C@H](Cc1c[nH]cn1)NC(=O)[C@H](C)NC(=O)[C@H](CC(C)C)NC(=O)[C@H](CCCCN)NC(=O)[C@H](CCC(N)=O)NC(=O)[C@@H](NC(=O)[C@@H](NC(=O)[C@@H]1CSSC[C@H](NC(=O)CNC(=O)[C@H](Cc2ccccc2)NC(=O)[C@H](CO)NC(=O)[C@H](CCCNC(=N)N)NC(=O)[C@H](CC(C)C)NC(=O)CNC(=O)[C@H](CCC(N)=O)NC(=O)[C@H](Cc2ccccc2)NC(=O)[C@H](CC(N)=O)NC(=O)[C@H](CC(N)=O)NC(=O)[C@H](CCSC)NC(=O)[C@H](CO)NC(=O)[C@H](CCC(N)=O)NC(=O)[C@H](CCCNC(=N)N)NC(=O)[C@@H](N)Cc2ccc(O)cc2)C(=O)N[C@@H](CCCNC(=N)N)C(=O)N[C@@H](Cc2ccccc2)C(=O)NCC(=O)N[C@@H]([C@@H](C)O)C(=O)N1)[C@@H](C)O)C(C)C)C(=O)N[C@@H](Cc1ccc(O)cc1)C(=O)N[C@@H](CCC(N)=O)C(=O)N[C@@H](Cc1ccccc1)C(=O)N[C@H](C(=O)N[C@@H](CC(=O)O)C(=O)N[C@@H](CCCCN)C(=O)N[C@@H](CC(=O)O)C(=O)N[C@@H](CCCCN)C(=O)N[C@@H](CC(=O)O)C(=O)N[C@@H](CC(N)=O)C(=O)N[C@H](C(=O)N[C@@H](C)C(=O)N1CCC[C@H]1C(=O)N[C@@H](CCCNC(=N)N)C(=O)N[C@@H](CO)C(=O)N[C@@H](CCCCN)C(=O)N[C@H](C(=O)N[C@@H](CO)C(=O)N1CCC[C@H]1C(=O)N[C@@H](CCC(N)=O)C(=O)NCC(=O)N[C@@H](Cc1ccc(O)cc1)C(N)=O)[C@@H](C)CC)C(C)C)[C@@H](C)O [AM, adrenomedullin]

Reference: article PMC5063977 (The Journal of Biological Chemistry, 2016)
